In ChEMBL document CHEMBL5726133, “Dihydropyrrolopyridine inhibitors of ROR-gamma” (2017):

Each compound was assayed against T1, Nuclear receptor ROR-gamma (Homo sapiens, UniProt P51449) (assay: Binding Assay: Compounds of the present invention were tested for ability to bind to RORγ in a cell-free competition assay with commercially available radio-ligand (RL), 25-hydroxy [26,27-3H]-cholesterol (PerkinElmer, Cat. #NET674250UC), for a ligand binding site on a recombinant RORγ Ligand Binding Domain (LBD) protein expressed as a 6×His-Glutathione-S-Transferase (GST) fusion. […] The plate was shaken at 700 rpm for 20 min and incubated for 10 min at rt, after which 40 μL of poly-Lys YSi SPA beads (PerkinElmer, Cat. #RPNQ0010) were added to achieve 50 μg of the beads per well. The plate was incubated on an orbital shaker for 20 min and then for 10 min without agitation at rt. SPA signal for tritium beta radiation was registered on PerkinElmer Microbeta plate reader.).
T1 sequence (P51449 whole entry): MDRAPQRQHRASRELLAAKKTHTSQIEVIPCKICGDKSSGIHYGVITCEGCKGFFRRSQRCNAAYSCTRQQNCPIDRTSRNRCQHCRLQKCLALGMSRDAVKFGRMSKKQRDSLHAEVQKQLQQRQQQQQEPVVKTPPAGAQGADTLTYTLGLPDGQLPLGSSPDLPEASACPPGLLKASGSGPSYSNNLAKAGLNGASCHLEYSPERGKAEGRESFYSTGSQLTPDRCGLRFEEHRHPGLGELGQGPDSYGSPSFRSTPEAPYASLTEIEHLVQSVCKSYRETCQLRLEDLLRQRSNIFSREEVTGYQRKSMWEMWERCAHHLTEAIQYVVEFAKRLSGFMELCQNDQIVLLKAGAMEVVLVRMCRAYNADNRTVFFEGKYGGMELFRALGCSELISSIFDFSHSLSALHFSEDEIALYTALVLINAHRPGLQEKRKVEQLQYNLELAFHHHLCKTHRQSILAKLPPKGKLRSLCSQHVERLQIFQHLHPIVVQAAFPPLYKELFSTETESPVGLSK

Ki	SMILES
< 100 nM	CCS(=O)(=O)c1ccc(CC(=O)Nc2cnc3c(c2)CN(Cc2ccc(Cl)cc2)[C@H]3C(C)C)cc1
< 100 nM	CCS(=O)(=O)c1ccc(CNC(=O)c2cnc3c(c2)C(=O)N(Cc2ccc(Cl)cc2)[C@H]3C(C)C)cc1
< 100 nM	CCS(=O)(=O)c1ccc(C2(NC(=O)c3cnc4c(c3)CN(Cc3ccc(C(F)(F)F)cc3)[C@H]4C(C)C)CC2)nc1
